Laboratory results from PMC10500001, “Dual hypoxia-responsive supramolecular complex for cancer target therapy” (Nature Communications, 2023).
Several values for one entry are separate records, joined by “and”; a condition that tells them apart may be missing. Equal values may be shown once.

Assays:
[1] = system: PANC1 cells; test: Cellular uptake mechanism with endocytosis inhibitors (flow cytometry); format: cell-based, human; settings: uptake of the SAC5A complex with the inhibitor, 4 replicates
Method: To examine the cellular uptake mechanism of SAC5A complex, PANC1 cells (3 × 10^5 cells/well) were seeded into the six-well plates and incubated overnight. The cells were pretreated with different endocytosis inhibitors for 1 h: chlorpromazine (CHP, 20 μM, an inhibitor of clathrin-mediated endocytosis), Amiloride (AMI, 500 μM, an inhibitor of macropinocytosis), Genistein (GEN, 200 μM, an inhibitor of caveolae-mediated endocytosis), methyl-β-cyclodextrin (M-β-CD, 5 mM, an inhibitor of lipid rafts-mediated endocytosis), the cells were also pre-incubated under 4 °C for 1 h (energy-dependent endocytosis). […] After that, the cells were collected and washed three times with PBS, and then analyzed by flow cytometry. All experiments were carried out four times. […]
Chlorpromazine (CHP): inhibitor of clathrin-mediated endocytosis; amiloride (AMI): inhibitor of macropinocytosis; Genistein (GEN): inhibitor of caveolae-mediated endocytosis; Methyl-β-cyclodextrin (M-β-CD): lipid rafts-mediated endocytosis; 4 °C: energy-mediated endocytosis. Data are presented as […]

[2] = system: PANC1 cells; test: CLSM fluorescence imaging in living cells under normoxic and hypoxic conditions; format: cell-based, human; settings: 10 μM
Method: In this assay, SBE-β-CD was employed to generate CY5-DM@SBE-β-CD as a benchmark. […] The increased fluorescence manifested the hypoxia-selective release performance of the supramolecular complex.
PANC1 cells (1 × 10^5 cells/well) were seeded into the confocal imaging chambers. […] After a 6 h incubation under normoxic conditions, the culture medium was exchanged with fresh medium. Thereafter, the cells were incubated at 37 °C for 18 h under either normoxic or hypoxic conditions, respectively. Subsequently, the cells were fixed in 4% paraformaldehyde (PFA; Biosharp, Hefei, China) for 15 min, washed with PBS buffer three times and then imaged using CLSM. Cell nuclei were counterstained with DAPI (C0060, Solarbio, Beijing, China) for 5 min.

[3] = system: PANC1 tumor-bearing mice; test: In vivo fluorescence imaging; settings: single mouse
Method: For animals and tumor model, male BALB/c nude mice at 5–6 weeks were purchased from Vital River Laboratory Animal Technology (Beijing, China). All animal experiments were performed according to the institutional animal care guidelines established by the Institutional Animal Care and Use Committee of Nankai University. To establish the PANC1 tumor-bearing mouse model, 1 × 10^6 PANC1 cells were injected subcutaneously into the right chest of BALB/c nude mice. After the tumor grows to a suitable size, the tumor was divided into small pieces and then subcutaneously incubated into the right chest of other mice. […] The ex vivo fluorescence imaging of major organs at 24 h post injection was imaged by IVIS. Fluorescent images were analyzed using Living Image 3.1 (Caliper Life Sciences).

[4] = design: method as in earlier work; settings: ref 2 of the supplement; cited from earlier work
[5] = Competitive fluorescence titration of LCG@SC5A with NMP-BE; format: binding; settings: HEPES pH 7.4
Method: The complexation of SAC5A with reporter dye (RhB) was measured by direct fluorescence titrations. A mixed solution containing known amounts of SAC5A and RhB was sequentially injected into 2.50 mL RhB solution in a quartz cuvette. The dye concentrations in mixed solution and cuvette are the same to keep dye concentration constant in the course of titrations. The fluorescence intensity was measured (λex = 554 nm for RhB) before the first addition and after every addition until a plateau was reached. By fitting the fluorescence intensity (λem = 575 nm for RhB) according to a 1:1 host-guest binding stoichiometry, the association constant was obtained. SC5A (LCG) and SBE-β-CD (NR) used the same method.
The complexation of SAC5A with NMP-BE was measured by competitive fluorescence titrations. […] The fluorescence intensity was measured (λex = 554 nm for RhB) before the first addition and after every addition. The association constant was obtained by fitting fluorescence intensity (λem = 575 nm for RhB) according to a 1:1 competitive binding model. […]
2.8 Fluorescence titrations of SC5A and SBE-β-CD with NMP-BE
Supplementary Figure 14. Competitive fluorescence titration of LCG@SC5A (1.0/1.0 µM) with NMP-BE (up to 80 µM) in HEPES buffer (10 mM, pH = 7.4) at 25 ℃, λex =

[6] = design: method as in PMID 17268062; settings: cited from earlier work

Molecule: N=C(N)NC(=O)c1nc(Cl)c(N)nc1N [AMI]
- cellular uptake relative to Ctrl (flow cytometry) in presence of endocytosis inhibitor [1]: 144.29 and 129.79 and 106.33 and 103.16

Molecule: CN(C)CCCN1c2ccccc2Sc2ccc(Cl)cc21 [CHP]
- cellular uptake relative to Ctrl (flow cytometry) in presence of endocytosis inhibitor [1]: 134.50 and 125.70 and 108.52 and 108.27

Molecule: CN1C(=CC=CC=CC2=[N+](C)c3ccccc3C2(C)C)C(C)(C)c2ccccc21 [CY5-DM, 1,1’,3,3,3’,3’-hexamethylindodicarbocyanine]
- difference in fluorescence intensities normoxic versus hypoxic [2]: no significant difference
- FL intensity of the tumor in vivo ([3]; 1h post iv injection): 1.80E+09 and 1.62E+09
- FL intensity of the tumor in vivo ([3]; 3h post iv injection): 1.74E+09 and 1.60E+09
- FL intensity of the tumor in vivo ([3]; 6h post iv injection): 1.41E+09 and 1.34E+09 and 1.52E+09
- FL intensity of the tumor in vivo ([3]; 12h post iv injection): 1.33E+09 and 1.26E+09
- FL intensity of the tumor in vivo ([3]; 24h post iv injection): 8.57E+08 and 6.21E+08 and 9.14E+08

Molecule: O=c1c(-c2ccc(O)cc2)coc2cc(O)cc(O)c12 [GEN]
- cellular uptake relative to Ctrl (flow cytometry) in presence of endocytosis inhibitor [1]: 88.04 and 87.28 and 70.24 and 68.53

Molecule: O=S(=O)(O)c1cc2c(O)c(c1)Cc1cc(S(=O)(=O)O)cc(c1O)Cc1cc(S(=O)(=O)O)cc(c1O)Cc1cc(S(=O)(=O)O)cc(c1O)Cc1cc(S(=O)(=O)O)cc(c1O)C2 [SC5A, sulfonated calix[5]arene]
- 1:1 binding affinity between SC5A and LCG [4]: 1.48 106 M−1
- bonding ability to NMP-BE [5]: almost no bonding ability

Molecule: C=C1/C=C\C(=O)N(C)CC(=O)NC(C(O)C(N)=O)C(=O)OC(C(C)CCCCCCCCCCCC(C)C)C(C)C(=O)N1 (stereo not shown) [rakicidin A]
- hypoxia-selective cytotoxicity [6]: moderate hypoxia-selective cytotoxicity

Molecule: M-β-CD
- cellular uptake relative to Ctrl (flow cytometry) in presence of endocytosis inhibitor [1]: 121.64 and 117.67 and 92.45 and 90.16
